According to patent US20260256830A1, “PERITONEAL DIALYSIS FLUID” (ZYTOPROTEC FLEXIBLE KAPITALGESELLSCHAFT, priority 2022, published 2026):
Peptide text beside a SMILES is read from it.

Experiment: Long-term stability of AGD in alkaline solution (amino acid analysis)
Type: physicochemical
Conditions: 52 weeks; for AGD, % of original amount after storage: 25° C./60% rH
Protocol: The long-term stability tests of AGD in an alkaline solution according to the present invention have been performed. […] The pH of each sample was adjusted with 1 M NaOH. Aliquots of each sample were prepared under controlled conditions and stored under the defined conditions at 25° C./60% rH. Sterilization was performed under following conditions: The stability of AGD has been investigated by AS analysis. Analysis was performed by […] amino acid analysis with JEX and post column derivatization with Ninhydrine.

decrease of the AGD, of original amount (both samples (pH 7.4 and 7.8), storage at 25° C./60% rH): less than 5%
AGD, % of original amount after storage (sample with pH-value of 7.4): 98%
AGD, % of original amount after storage (sample with pH-value of 7.8): > 95%
SMILES: C[C@H](N)C(=O)N[C@@H](CCC(N)=O)C(=O)O [AGD, L-alanyl-L-glutamine] (H-Ala-Gln-OH)
